Assay in all cases: Glasshouse assay for herbicidal activity (pre- and post-emergence), percentage phytotoxicity
Common to all, as to type: in vivo

For assay [1], the system named is Alopecurus myosuroides (ALOMY). The conditions noted are these: Alopecurus myosuroides. In a few lines:
(§1)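 Damage was rated visually as percent phytotoxicity, 100% meaning total kill, 20 days after pre-emergence application (made one day post-sowing) or 15 days after post-emergence application (made about 12 days post-sowing). Plants were grown under 16 h light, 65% humidity, warm species 24/18° C, cool 20/16° C.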

A further assay relates to Avena fatua (AVEFA). The conditions noted are these: Avena fatua. In a few lines:
as §1

In assay [2] the test system is Echinochloa crus-galli (ECHCG). As to conditions: Echinochloa crus-galli. The essentials:
as §1

Another assay concerns Lolium perenne (LOLPE). The conditions noted are these: Lolium perenne. In a few lines:
as §1

The mark [3] stands for this setting: post-emergence, 360 h, 250 g/ha, post-emergence, 15 DAA, visual assessment (100%=total damage, 0%=no damage), read-out: Post-emergence herbicidal activity (percentage phytotoxicity) ALOMY POST.
The mark [4] stands for this setting: pre-emergence, 480 h, 250 g/ha, pre-emergence, 20 DAA, visual assessment (100%=total damage, 0%=no damage), read-out: Pre-emergence herbicidal activity (percentage phytotoxicity) ALOMY PRE.
The mark [5] stands for this setting: post-emergence, 360 h, 250 g/ha, post-emergence, 15 DAA, visual assessment (100%=total damage, 0%=no damage), read-out: Post-emergence herbicidal activity (percentage phytotoxicity) AVEFA POST.
The mark [6] stands for this setting: pre-emergence, 480 h, 250 g/ha, pre-emergence, 20 DAA, visual assessment (100%=total damage, 0%=no damage), read-out: Pre-emergence herbicidal activity (percentage phytotoxicity) AVEFA PRE.
[7] abbreviates: post-emergence, 360 h, 250 g/ha, post-emergence, 15 DAA, visual assessment (100%=total damage, 0%=no damage), read-out: Post-emergence herbicidal activity (percentage phytotoxicity) ECHCG POST.
Setting [8] is: pre-emergence, 480 h, 250 g/ha, pre-emergence, 20 DAA, visual assessment (100%=total damage, 0%=no damage), read-out: Pre-emergence herbicidal activity (percentage phytotoxicity) ECHCG PRE.
Setting [9] is: post-emergence, 360 h, 250 g/ha, post-emergence, 15 DAA, visual assessment (100%=total damage, 0%=no damage), read-out: Post-emergence herbicidal activity (percentage phytotoxicity) LOLPE POST.
Setting [10] is: pre-emergence, 480 h, 250 g/ha, pre-emergence, 20 DAA, visual assessment (100%=total damage, 0%=no damage), read-out: Pre-emergence herbicidal activity (percentage phytotoxicity) LOLPE PRE.
The mark [11] stands for this setting: post-emergence, 360 h, Rate 250 g/ha, post-emergence, visual assessment 15 DAA, 100%=total damage, 0%=no damage, read-out: Post-emergence herbicidal activity (percentage phytotoxicity) ALOMY POST.
[12] abbreviates: pre-emergence, 480 h, Rate 250 g/ha, pre-emergence, visual assessment 20 DAA, 100%=total damage, 0%=no damage, read-out: Pre-emergence herbicidal activity (percentage phytotoxicity) ALOMY PRE.
Where [13] appears, read: post-emergence, 360 h, Rate 250 g/ha, post-emergence, visual assessment 15 DAA, 100%=total damage, 0%=no damage, read-out: Post-emergence herbicidal activity (percentage phytotoxicity) AVEFA POST.
The mark [14] stands for this setting: pre-emergence, 480 h, Rate 250 g/ha, pre-emergence, visual assessment 20 DAA, 100%=total damage, 0%=no damage, read-out: Pre-emergence herbicidal activity (percentage phytotoxicity) AVEFA PRE.
Setting [15] is: post-emergence, 360 h, Rate 250 g/ha, post-emergence, visual assessment 15 DAA, 100%=total damage, 0%=no damage, read-out: Post-emergence herbicidal activity (percentage phytotoxicity) ECHCG POST.
Setting [16] is: pre-emergence, 480 h, Rate 250 g/ha, pre-emergence, visual assessment 20 DAA, 100%=total damage, 0%=no damage, read-out: Pre-emergence herbicidal activity (percentage phytotoxicity) ECHCG PRE.
Where [17] appears, read: post-emergence, 360 h, Rate 250 g/ha, post-emergence, visual assessment 15 DAA, 100%=total damage, 0%=no damage, read-out: Post-emergence herbicidal activity (percentage phytotoxicity) LOLPE POST.
The mark [18] stands for this setting: pre-emergence, 480 h, Rate 250 g/ha, pre-emergence, visual assessment 20 DAA, 100%=total damage, 0%=no damage, read-out: Pre-emergence herbicidal activity (percentage phytotoxicity) LOLPE PRE.
The mark [19] stands for this setting: post-emergence, 360 h, Rate 250 g/ha, post-emergence, assessed visually 15 DAA, 100%=total damage, 0%=no damage, read-out: Post-emergence herbicidal activity (percentage phytotoxicity) ALOMY POST.
The mark [20] stands for this setting: pre-emergence, 480 h, Rate 250 g/ha, pre-emergence, assessed visually 20 DAA, 100%=total damage, 0%=no damage, read-out: Pre-emergence herbicidal activity (percentage phytotoxicity) ALOMY PRE.
Where [21] appears, read: post-emergence, 360 h, Rate 250 g/ha, post-emergence, assessed visually 15 DAA, 100%=total damage, 0%=no damage, read-out: Post-emergence herbicidal activity (percentage phytotoxicity) AVEFA POST.
[22] abbreviates: pre-emergence, 480 h, Rate 250 g/ha, pre-emergence, assessed visually 20 DAA, 100%=total damage, 0%=no damage, read-out: Pre-emergence herbicidal activity (percentage phytotoxicity) AVEFA PRE.
Where [23] appears, read: post-emergence, 360 h, Rate 250 g/ha, post-emergence, assessed visually 15 DAA, 100%=total damage, 0%=no damage, read-out: Post-emergence herbicidal activity (percentage phytotoxicity) ECHCG POST.
[24] abbreviates: pre-emergence, 480 h, Rate 250 g/ha, pre-emergence, assessed visually 20 DAA, 100%=total damage, 0%=no damage, read-out: Pre-emergence herbicidal activity (percentage phytotoxicity) ECHCG PRE.
The mark [25] stands for this setting: post-emergence, 360 h, Rate 250 g/ha, post-emergence, assessed visually 15 DAA, 100%=total damage, 0%=no damage, read-out: Post-emergence herbicidal activity (percentage phytotoxicity) LOLPE POST.
Setting [26] is: pre-emergence, 480 h, Rate 250 g/ha, pre-emergence, assessed visually 20 DAA, 100%=total damage, 0%=no damage, read-out: Pre-emergence herbicidal activity (percentage phytotoxicity) LOLPE PRE.
The mark [27] stands for this setting: post-emergence, 360 h, POST-emergence, rate 250 g/ha, visual score 15 DAA (100%=total damage, 0%=no damage), read-out: Post-emergence herbicidal activity (percentage phytotoxicity) ALOMY POST.
Setting [28] is: pre-emergence, 480 h, PRE-emergence, rate 250 g/ha, visual score 20 DAA (100%=total damage, 0%=no damage), read-out: Pre-emergence herbicidal activity (percentage phytotoxicity) ALOMY PRE.
[29] abbreviates: post-emergence, 360 h, POST-emergence, rate 250 g/ha, visual score 15 DAA (100%=total damage, 0%=no damage), read-out: Post-emergence herbicidal activity (percentage phytotoxicity) AVEFA POST.
Setting [30] is: pre-emergence, 480 h, PRE-emergence, rate 250 g/ha, visual score 20 DAA (100%=total damage, 0%=no damage), read-out: Pre-emergence herbicidal activity (percentage phytotoxicity) AVEFA PRE.
[31] abbreviates: post-emergence, 360 h, POST-emergence, rate 250 g/ha, visual score 15 DAA (100%=total damage, 0%=no damage), read-out: Post-emergence herbicidal activity (percentage phytotoxicity) ECHCG POST.
The mark [32] stands for this setting: pre-emergence, 480 h, PRE-emergence, rate 250 g/ha, visual score 20 DAA (100%=total damage, 0%=no damage), read-out: Pre-emergence herbicidal activity (percentage phytotoxicity) ECHCG PRE.
Where [33] appears, read: post-emergence, 360 h, POST-emergence, rate 250 g/ha, visual score 15 DAA (100%=total damage, 0%=no damage), read-out: Post-emergence herbicidal activity (percentage phytotoxicity) LOLPE POST.
Where [34] appears, read: pre-emergence, 480 h, PRE-emergence, rate 250 g/ha, visual score 20 DAA (100%=total damage, 0%=no damage), read-out: Pre-emergence herbicidal activity (percentage phytotoxicity) LOLPE PRE.

Like-named read-outs stand apart in the source and are kept apart here.

This passage reports pest or weed control results from US10206394B2, “Herbicidal compounds” (Syngenta Participations AG, priority 2014, dated 2019).

Consider `C#CC(C)NC(=O)CC1CC(=O)C(c2c(C)cc(C)cc2C)C1=O` (stereo not drawn) [Compound B56], for which the pest or weed control at 250 g/ha in assay [1] (setting [3]) is 90%; in assay [1] (setting [4]), 80%; with Avena fatua (AVEFA) (setting [5]) it was 90%; in the assay on Avena fatua (AVEFA) (setting [6]) it was 70%; in assay [2] (setting [7]), 90%; in assay [2] (setting [8]), 90%. Moreover, the results for the pest or weed control at 250 g/ha with Lolium perenne (LOLPE) (setting [9]) and in the assay with Lolium perenne (LOLPE) (setting [10]) were 90% and 80%, respectively.

For the compound `Cc1cc(C)c(C2=C(OC(=O)C(C)(C)C)CC(CC(=O)NC3COC3)C2=O)c(C)c1` (stereo not drawn) [Compound P13], the pest or weed control at 250 g/ha in assay [1] (setting [11]) was 80%; in assay [1] (setting [12]) it was 50%; in the assay on Avena fatua (AVEFA) (setting [13]), 70%; in the assay on Avena fatua (AVEFA) (setting [14]), 10%; in assay [2] (setting [15]), 80%; in assay [2] (setting [16]), 20%. Besides, the pest or weed control at 250 g/ha with Lolium perenne (LOLPE) (setting [17]) turned out to be 70%; with Lolium perenne (LOLPE) (setting [18]), 10%.

As for `C#Cc1cc(-c2ncc(F)cc2F)cc(C)c1C1C(=O)CC(CC(=O)NC(C)(C)C)C1=O` (stereo not drawn) [Compound B381, N-tert-butyl-2-[3-[4-(3,5-difluoro-2-pyridyl)-2-ethynyl-6-methyl-phenyl]-2,4-dioxo-cyclopentyl]acetamide], the pest or weed control at 250 g/ha turned out to be 100% in assay [1] (setting [11]); 70% in assay [1] (setting [12]); 100% in the assay with Avena fatua (AVEFA) (setting [13]); 70% with Avena fatua (AVEFA) (setting [14]); 100% in assay [2] (setting [15]); 70% in assay [2] (setting [16]). For the same compound, the pest or weed control at 250 g/ha is 100% with Lolium perenne (LOLPE) (setting [17]) and 90% in the assay on Lolium perenne (LOLPE) (setting [18]).

With `Cc1cc(-c2ccc(Cl)cc2)cc(C)c1C1C(=O)CC(CC(=O)NC(C)C)C1=O` (stereo not drawn) [Compound A35], the pest or weed control at 250 g/ha in assay [1] (setting [19]) was determined as 90%; in assay [1] (setting [20]), 90%; with Avena fatua (AVEFA) (setting [21]) it was 100%; in the assay with Avena fatua (AVEFA) (setting [22]), 100%; in assay [2] (setting [23]), 100%; in assay [2] (setting [24]), 100%. The pest or weed control at 250 g/ha in the assay with Lolium perenne (LOLPE) (setting [25]) and with Lolium perenne (LOLPE) (setting [26]) was 100% each time.

As for `Cc1cc(C)c(C2C(=O)CC(CC(=O)NC/C=C/Cl)C2=O)c(C)c1` (stereo not drawn) [Compound B46], the pest or weed control at 250 g/ha was found to be 90% in assay [1] (setting [3]); 90% in assay [1] (setting [4]); 90% in the assay with Avena fatua (AVEFA) (setting [5]); 60% in the assay with Avena fatua (AVEFA) (setting [6]); 90% in assay [2] (setting [7]); 90% in assay [2] (setting [8]). For the same compound, the pest or weed control at 250 g/ha with Lolium perenne (LOLPE) (setting [9]) is 90%; in the assay with Lolium perenne (LOLPE) (setting [10]) it was 100%.

For the compound `CC#Cc1cc(C)c(C2C(=O)CC(CC(=O)NC3CCCC3)C2=O)c(CC)c1` (stereo not drawn) [Compound A52], the pest or weed control at 250 g/ha in assay [1] (setting [19]) is 100%; in assay [1] (setting [20]) it was 100%; with Avena fatua (AVEFA) (setting [21]) it was 100%; with Avena fatua (AVEFA) (setting [22]), 90%; in assay [2] (setting [23]), 100%; in assay [2] (setting [24]) it was 90%. Further, the pest or weed control at 250 g/ha with Lolium perenne (LOLPE) (setting [25]) and with Lolium perenne (LOLPE) (setting [26]) was 90% throughout.

For `Cc1cc(OCC(F)(F)F)cc(C)c1C1C(=O)CC(CC(=O)NCc2ccc(C#N)cc2)C1=O` (stereo not drawn) [Compound B207], the pest or weed control at 250 g/ha in assay [1] (setting [27]) is 80%; in assay [1] (setting [28]), 40%; with Avena fatua (AVEFA) (setting [29]) it was 50%; in the assay on Avena fatua (AVEFA) (setting [30]), 0%; in assay [2] (setting [31]), 90%; in assay [2] (setting [32]) it was 40%. For the same compound, the figures for the pest or weed control at 250 g/ha in the assay with Lolium perenne (LOLPE) (setting [33]) and in the assay on Lolium perenne (LOLPE) (setting [34]) were 60% and 10%, respectively.

For the compound `Cc1cc(-c2ncc(Cl)cc2F)cc(C)c1C1C(=O)CC(CC(=O)NCc2cccc(C(F)(F)F)c2)C1=O` (stereo not drawn) [Compound A120], the pest or weed control at 250 g/ha in assay [1] (setting [19]) worked out at 100%; in assay [1] (setting [20]) it was 80%; with Avena fatua (AVEFA) (setting [21]), 100%; with Avena fatua (AVEFA) (setting [22]), 90%; in assay [2] (setting [23]) it was 100%; in assay [2] (setting [24]), 100%. Further, the pest or weed control at 250 g/ha came to 100% in the assay on Lolium perenne (LOLPE) (setting [25]) and 80% in the assay with Lolium perenne (LOLPE) (setting [26]).

As for `C=C(C)CNC(=O)CC1CC(=O)C(c2c(C)cc(-c3ncc(Br)cn3)cc2C)C1=O` (stereo not drawn) [Compound B283], the pest or weed control at 250 g/ha in assay [1] (setting [27]) was found to be 100%; in assay [1] (setting [28]) it was 100%; with Avena fatua (AVEFA) (setting [29]), 100%; in the assay on Avena fatua (AVEFA) (setting [30]) it was 90%; in assay [2] (setting [31]), 100%; in assay [2] (setting [32]) it was 100%. Moreover, the pest or weed control at 250 g/ha in the assay on Lolium perenne (LOLPE) (setting [33]) and with Lolium perenne (LOLPE) (setting [34]) was 100% each time.
